Assay results reported in US10471139B2, “Toll-like receptor agonists” (The University of Kansas, priority 2013, dated 2019).

Tests used:
[1] = system: human natural killer (NK), cytokine-induced killer (CIK) and nominal B lymphocytes; experiment: Flow-cytometric CD69 upregulation in lymphocytic subsets of whole human blood; assay type: cell-based
Description: Flow-Cytometric Immunostimulation Experiments.
CD69 upregulation was determined by flow cytometry and modified for rapid-throughput. Briefly, heparin-anticoagulated whole blood samples were obtained by venipuncture from healthy human volunteers with informed consent and as per guidelines approved by the University of Kansas Human Subjects Experimentation Committee. Serial dilutions of selected imidazopyridine compounds (and imiquimod, used as a reference compound) were performed using a Bio-Tek Precision 2000 XS liquid handler in sterile 96-well polypropylene plates, to which were added 100 μL aliquots of anticoagulated whole human blood. The plates were incubated at 37° C. for 16.5 h. Negative (endotoxin free water) controls were included in each experiment. Following incubation, fluorochrome-conjugated antibodies (CD3-PE, CD56-APC, CD69-PE-Cy7, 10 μL of each antibody, Becton-Dickinson Biosciences, San Jose, Calif.) were added to each well with a liquid handler, and incubated at 37° C. in the dark for 30 min. […] CD69 activation in the major lymphocytic populations, viz., natural killer lymphocytes (NK cells: CD3^−CD56^+), cytokine-induced killer phenotype (CIK cells: CD3^+CD56^+), nominal B lymphocytes (CD3^−CD56^−), and nominal T lymphocytes (CD3^+CD56^−) were quantified using FlowJo v 7.0 software (Treestar, Ashland, Oreg.). […]

human PBMCs [2] = experiment: Proinflammatory cytokine induction in human PBMCs / human blood (bead array); assay type: cell-based; conditions: human PBMCs and whole human blood
Description: Immunoassays for Interferon (IFN)-α, and Cytokines.
(§1) Fresh human peripheral blood mononuclear cells (hPBMC) were isolated from human blood obtained by venipuncture with informed consent and as per institutional guidelines on Ficoll-Hypaque gradients as described elsewhere. Aliquots of PBMCs (10^5 cells in 100 μL/well) were stimulated for 12 h with graded concentrations of test compounds. Supernatants were isolated by centrifugation, and were assayed in triplicates using either high-sensitivity multi-subtype IFN-α ELISA kits (PBL Interferon Source, Piscataway, N.J. and R&D Systems, Inc., Minneapolis, Minn.), or analyte-specific multiplexed cytokine/chemokine bead array assays as reported by us previously.

human TLR8 = molecular target: T1, human TLR8 (Homo sapiens, UniProt Q9NR97); experiment: Human TLR8 reporter gene assay (NF-κB induction), HEK-Blue-8 cells; assay type: cell-based
T1 construct: expressed in transfected cells; host or cells: HEK293 (HEK-Blue-8)
T1 sequence (Q9NR97 27-1041): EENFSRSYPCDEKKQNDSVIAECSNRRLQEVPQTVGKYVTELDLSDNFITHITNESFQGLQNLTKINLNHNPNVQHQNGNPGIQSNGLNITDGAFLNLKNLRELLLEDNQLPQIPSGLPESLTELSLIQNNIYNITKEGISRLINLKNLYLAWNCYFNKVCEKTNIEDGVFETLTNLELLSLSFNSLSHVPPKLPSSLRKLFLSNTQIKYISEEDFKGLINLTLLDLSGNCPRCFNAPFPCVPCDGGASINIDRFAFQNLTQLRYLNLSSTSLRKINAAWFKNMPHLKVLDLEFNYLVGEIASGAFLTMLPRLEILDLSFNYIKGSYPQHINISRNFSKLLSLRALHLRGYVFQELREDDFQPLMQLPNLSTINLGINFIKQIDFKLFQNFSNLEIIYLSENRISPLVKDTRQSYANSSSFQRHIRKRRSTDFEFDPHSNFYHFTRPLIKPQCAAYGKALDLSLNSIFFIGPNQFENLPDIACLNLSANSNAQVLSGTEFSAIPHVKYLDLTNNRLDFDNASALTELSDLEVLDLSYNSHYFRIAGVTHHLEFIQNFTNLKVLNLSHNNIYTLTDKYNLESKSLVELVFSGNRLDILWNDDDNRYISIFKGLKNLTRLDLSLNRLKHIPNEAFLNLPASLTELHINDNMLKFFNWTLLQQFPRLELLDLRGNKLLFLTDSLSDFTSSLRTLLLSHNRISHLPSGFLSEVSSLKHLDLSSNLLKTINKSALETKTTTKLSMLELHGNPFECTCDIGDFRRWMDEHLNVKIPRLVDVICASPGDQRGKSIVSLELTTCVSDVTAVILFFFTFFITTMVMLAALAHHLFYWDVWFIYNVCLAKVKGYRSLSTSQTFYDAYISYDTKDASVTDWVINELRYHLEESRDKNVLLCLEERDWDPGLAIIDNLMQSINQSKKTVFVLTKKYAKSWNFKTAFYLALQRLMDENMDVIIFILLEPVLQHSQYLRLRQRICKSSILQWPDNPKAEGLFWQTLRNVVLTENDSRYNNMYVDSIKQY
Source text: Human TLR-7/-8 Reporter Gene Assays (NF-κB Induction).
The induction of NF-κB was quantified using HEK-Blue-7 (hTLR7-specific) and HEK-Blue-8 (hTLR8-specific) cells. HEK293 cells stably co-transfected with human TLR7 or human TLR8, MD2, and secreted alkaline phosphatase (sAP), were maintained in HEK-Blue™ Selection medium containing zeocin and normocin. Stable expression of secreted alkaline phosphatase (sAP) under control of NF-κB/AP-1 promoters is inducible by appropriate TLR agonists, and extracellular sAP in the supernatant is proportional to NF-κB induction.
HEK293 cells stably co-transfected with the appropriate hTLR (or NOD) and secreted alkaline phosphatase (sAP) were maintained in HEK-Blue™ Selection medium. Stable expression of secreted alkaline phosphatase (sAP) under control of NF-κB/AP-1 promoters is inducible by appropriate TLR/NOD agonists, and extracellular sAP in the supernatant is proportional to NF-κB induction.

human PBMCs [3] = experiment: IFN-α induction in human PBMCs (ELISA); assay type: cell-based; conditions: PBMC
Description: as §1

[4] = system: human foreskin fibroblasts (HFFs); experiment: Metabolic stability in human foreskin fibroblasts (microdialysis, LC-MS/MS); assay type: in vitro ADME
[5] = as above; assay type: in vitro ADME; conditions: human, human foreskin fibroblasts (HFFs)
[6] = system: peripheral blood mononuclear cells (PBMCs); experiment: Metabolic stability in peripheral blood mononuclear cells (microdialysis, LC-MS/MS); assay type: in vitro ADME, human; conditions: PBMCs
[7] = as above; assay type: in vitro ADME, human; conditions: human, peripheral blood mononuclear cells (PBMCs)
[8] = Chemical stability of the free base (autoxidation); assay type: physicochemical; conditions: rapid formation of 3-ol A5 by autoxidation
Source text: A ring-contracted 2-amino-3-alkylindole analogue compound A4, accessed via sequential C-alkylation of commercially available 2-nitrophenylacetonitrile, reduction of the 2-nitro group, and Brønsted acid-promoted, microwave-assisted intramolecular cyclization (Scheme A1).

For `CCCCCn1c(N)nc2c(C)cccc21` [Compound A31a, 4-Methyl-1-pentyl-1H-benzo[d]imidazol-2-amine], the “CD69 upregulation in natural killer (NK) lymphocytes” value [1] was “complete absence”, the “induction of proinflammatory cytokines, IL-12p40 and IFN-γ” value (human PBMCs [2]) was “induction” and the EC50 (human TLR8; primary screens, read-out: TLR8-agonistic activity EC50) was 1.13 µM.
For `CCCCc1nc2c(N)nc(NCc3ccc(CN)cc3)cc2n1Cc1ccccc1` [Compound 19p, N^6-(4-(aminomethyl)benzyl)-1-benzyl-2-butyl-1H-imidazo[4,5-c]pyridine-4,6-diamine], the EC50 (human PBMCs [3]) was 0.3 µM, the “number of major metabolites identified by LC-MS/MS” value ([4]; FIG. 5B, Table A, cell type not stated) was 6 and the “parent detected by LC-MS” value ([4]; HFFs, at 1 hour) was “nearly undetectable”. The half-life [5] was less than 1 h, the “CD69 expression in natural killer, cytokine-induced killer and B lymphocytic subsets” value [1] was “as active as the reference TLR7 agonist IMDQ” and the “time by which parent was depleted” value [6] was no more than 8 h. The half-life [7] was 3 h.
In the case of `CCCCC1C(N)=Nc2ccccc21` (stereo not shown) [Compound A4], the “stability of the free-base” value [8] is reported as “exceedingly unstable”, the “hTLR8 Agonistic Activity (EC50)” value (human TLR8; human TLR 8-specific reporter gene assays) is reported as “Unstable” and the “TLR8-agonistic activity of the hydrochloride salt” value (human TLR8; hydrochloride salt) is reported as “inactive”.
